Where a name gives a salt, the structure may show the parent alone. A value given as a limit tells only on which side of the number the result lay.

What all share (format): biochemical
Assay [1] has as its system human JAK1. Description: In vitro JAK kinase assay (HTRF, phosphorylation of a biotinylated peptide), JAK1. The arrangement: key to JAK1 IC50 (nM): +indicates an IC50 of ≦100 nM; ++indicates an IC50 of ≦1000 nM; +++indicates an IC50 of ≦2000 nM; ++++indicates an IC50 of >2000 nM; +++++indicates that the IC50 was greater than the highest concentration tested. The settings on record: ratio of IC50s, 1 mM ATP. As to the method:
(§1) Compounds herein were tested for inhibitory activity of JAK targets according to the following in vitro assay described in Park et al., Analytical Biochemistry 1999, 269, 94-104. The catalytic domains of human JAK1 (a.a. 837-1142), JAK2 (a.a. 828-1132) and JAK3 (a.a. 781-1124) were expressed using baculovirus in insect cells and purified. The catalytic activity of JAK1, JAK2 or JAK3 was assayed by measuring the phosphorylation of a biotinylated peptide. The phosphorylated peptide was detected by homogenous time resolved fluorescence (HTRF). IC50s of compounds were measured for each kinase in the 40 μL reactions that contain the enzyme, ATP and 500 nM peptide in 50 mM Tris (pH 7.8) buffer with 100 mM NaCl, 5 mM DTT, and 0.1 mg/mL (0.01%) BSA. For the 1 mM IC50 measurements, ATP concentration in the reactions was 1 mM. Reactions were carried out at room temperature for 1 hour and then stopped with 20 μL 45 mM EDTA, 300 nM SA-APC, 6 nM Eu-Py20 in assay buffer (Perkin Elmer, Boston, Mass.). Binding to the Europium labeled antibody took place for 40 minutes and HTRF signal was measured on a PHERA star plate reader (BMG, Cary, N.C.). The Example compounds were each tested in the Example A assay (see Table 1 for data for the compounds of the examples as tested by the assay of Example A at 1 mM ATP).
(TR-FRET usually uses a lanthanide donor and a delayed reading to cut background.)

Assay [2] has as its target human JAK1 (Homo sapiens, UniProt P23458). The description is as above. The arrangement: key to JAK1 IC50 (nM): +indicates an IC50 of ≦100 nM; ++indicates an IC50 of ≦1000 nM; +++indicates an IC50 of ≦2000 nM; ++++indicates an IC50 of >2000 nM; +++++indicates that the IC50 was greater than the highest concentration tested. The settings on record: 1 mM ATP. The procedure: as §1

Another assay has as its target human JAK2 (Homo sapiens (Human), UniProt O60674). Description: In vitro JAK kinase assay (HTRF, phosphorylation of a biotinylated peptide), JAK2. The settings on record: 1 mM ATP. On the set-up: key to JAK2 IC50 (nM): +indicates an IC50 of ≦100 nM; ++indicates an IC50 of ≦1000 nM; +++indicates an IC50 of ≦2000 nM; ++++indicates an IC50 of >2000 nM; +++++indicates that the IC50 was greater than the highest concentration tested. As to the method: as §1

Sequence of human JAK2 (O60674 828-1132): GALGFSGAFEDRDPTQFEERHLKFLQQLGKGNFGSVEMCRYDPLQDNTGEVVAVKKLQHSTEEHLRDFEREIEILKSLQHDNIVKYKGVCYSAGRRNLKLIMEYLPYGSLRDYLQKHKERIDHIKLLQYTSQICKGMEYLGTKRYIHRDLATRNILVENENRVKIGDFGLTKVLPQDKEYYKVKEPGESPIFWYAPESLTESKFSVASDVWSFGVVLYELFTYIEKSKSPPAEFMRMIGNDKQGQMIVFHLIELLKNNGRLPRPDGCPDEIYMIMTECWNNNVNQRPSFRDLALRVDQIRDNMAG

Regarding `Cc1nc2cnc3ccsc3c2n1[C@@H]1CC[C@@H](CC#N)[C@@H](O)C1` (mixture of isomers) [Example 34, Mixture of [(1R,2R,4S)-2-hydroxy-4-(2-methyl-1H-imidazo[4,5-d]thieno[3,2-b]pyridin-1-yl)cyclohexyl]acetonitrile trifluoroacetate and [(1S,2S,4R)-2-hydroxy-4-(2-methyl-1H-imidazo[4,5-d]thieno[3,2-b]pyridin-1-yl)cyclohexyl]acetonitrile trifluoroacetate], in the assay with human JAK1 [1], the JAK2/JAK1 is given as >10.
As usually defined, the IC50 is the concentration at which inhibition is half-maximal. For `CCc1nc2cnc3ccsc3c2n1[C@H]1CC[C@H](CC#N)[C@H](O)C1` (racemic) [Example 35], the IC50 on human JAK1 [2] is ≤ 0.1 µM; on human JAK2, > 2 µM.
As for `C[C@@H](O)c1nc2cnc3ccsc3c2n1C1CCNCC1F` (single isomer, unassigned) [9 (2nd peak)], the JAK2/JAK1 in the assay on human JAK1 [1] is given as >10. For the same compound, the “JAK2 IC50 (nM)” value at human JAK2 is recorded as “+++++”.
Consider `C[C@@H](O)c1nc2cnc3ccsc3c2n1C1CCC(O)(CC#N)CC1` (single isomer, unassigned) [24 (first peak)], for which the JAK2/JAK1 with human JAK1 [1] is on record as >10. Further, the IC50 against human JAK1 [2] was ≤ 0.1 µM; on human JAK2, > 2 µM.
For the compound `C[C@@H](O)c1nc2cnc3ccsc3c2n1C1CCC(O)(CC#N)CC1` (single isomer, unassigned) [24 (second peak)], the IC50 against human JAK1 [2] was ≤ 1 µM.
As to `C[C@@H](O)c1nc2cnc3ccsc3c2n1C1CCC(NCCC#N)CC1` (single isomer, unassigned) [30 (first peak)], the JAK2/JAK1 in the assay on human JAK1 [1] is recorded as >2. Also, the IC50 on human JAK1 [2] was ≤ 1 µM; against human JAK2, > 2 µM.
Regarding `C[C@@H](O)c1nc2cnc3ccsc3c2n1C1CCC(NCCC#N)CC1` (single isomer, unassigned) [30 (second peak)], the JAK2/JAK1 in the assay with human JAK1 [1] is >10. Further, the IC50 against human JAK1 [2] was ≤ 2 µM. Besides, the “JAK2 IC50 (nM)” value at human JAK2 was “+++++”.
In the case of `N#CCC1CCC(CO)(n2cnc3cnc4ccsc4c32)CC1` (single isomer, unassigned) [72 (second peak), [4-(Hydroxymethyl)-4-(1H-imidazo[4,5-d]thieno[3,2-b]pyridin-1-yl)cyclohexyl]acetonitrile], the JAK2/JAK1 in the assay with human JAK1 [1] is reported as >5. In addition, the figures for the IC50 on human JAK1 [2] and against human JAK2 were ≤ 0.1 µM and ≤ 1 µM, respectively.
`C[C@@H](O)c1nc2cnc3ccsc3c2n1C1CCNCC1F` (stereo partly drawn) [9 (1st peak), (1R)-1-[1-(3-Fluoropiperidin-4-yl)-1H-imidazo[4,5-d]thieno[3,2-b]pyridin-2-yl]ethanol]: the “JAK1 IC50 (nM)” value on human JAK1 [2] is on record as “+++++”. In addition, on human JAK2, the “JAK2 IC50 (nM)” value was “+++++”.
For `C[C@@H](O)c1nc2cnc3ccsc3c2n1[C@H]1CCCOC1` [Example 1, (1R)-1-{1-[(3S)-Tetrahydro-2H-pyran-3-yl]-1H-imidazo[4,5-d]thieno[3,2-b]pyridin-2-yl}ethanol], the JAK2/JAK1 in the assay on human JAK1 [1] is on record as >3. Moreover, the IC50 on human JAK1 [2] was ≤ 1 µM. Besides, the “JAK2 IC50 (nM)” value at human JAK2 is given as “+++++”.
In the case of `C[C@@H](O)c1nc2cnc3ccsc3c2n1[C@H]1CC[C@H](CC#N)CC1` [Example 2, (trans-4-{2-[(1R)-1-Hydroxyethyl]-1H-imidazo[4,5-d]thieno[3,2-b]pyridin-1-yl}cyclohexyl)acetonitrile], in the assay with human JAK1 [1], the JAK2/JAK1 was >10.
Take `C[C@@H](O)c1nc2cnc3ccsc3c2n1[C@H]1CC[C@H](O)CC1` [Example 3, trans-4-{2-[(1R)-1-Hydroxyethyl]-1H-imidazo[4,5-d]thieno[3,2-b]pyridin-1-yl}cyclohexanol]: the JAK2/JAK1 with human JAK1 [1] is listed as >10. Further, the IC50 against human JAK1 [2] is ≤ 1 µM. In addition, the “JAK2 IC50 (nM)” value on human JAK2 is recorded as “+++++”.
Consider `C[C@@H](O)c1nc2cnc3ccsc3c2n1[C@H]1CC[C@H](NCC(F)(F)F)CC1` [Example 4, (1R)-1-(1-{trans-4-[(2,2,2-Trifluoroethyl)amino]cyclohexyl}-1H-imidazo[4,5-d]thieno[3,2-b]pyridin-2-yl)ethanol], for which the JAK2/JAK1 in the assay on human JAK1 [1] was >10. For the same compound, the figures for the IC50 against human JAK1 [2] and on human JAK2 were ≤ 0.1 µM and ≤ 2 µM, respectively.
For `C[C@@H](O)c1nc2cnc3ccsc3c2n1[C@H]1CC[C@H](CCS(C)(=O)=O)CC1` [Example 5, (1R)-1-(1-{trans-4-[2-(Methylsulfonyl)ethyl]cyclohexyl}-1H-imidazo[4,5-d]thieno[3,2-b]pyridin-2-yl)ethanol], the JAK2/JAK1 in the assay with human JAK1 [1] is >10. Also, on human JAK1 [2], the IC50 was ≤ 0.1 µM. For the same compound, the “JAK2 IC50 (nM)” value on human JAK2 is “+++++”.
In the case of `C[C@@H](O)c1nc2cnc3ccsc3c2n1[C@H]1CC[C@@H](n2cncn2)CC1` [Example 6, (1R)-1-{1-[cis-4-(1H-1,2,4-Triazol-1-yl)cyclohexyl]-1H-imidazo[4,5-d]thieno[3,2-b]pyridin-2-yl}ethanol], in the assay with human JAK1 [1], the JAK2/JAK1 is recorded as >6. At human JAK1 [2], the IC50 is ≤ 2 µM. The “JAK2 IC50 (nM)” value on human JAK2 is “+++++”.
With `C[C@@H](O)c1nc2cnc3ccsc3c2n1[C@H]1CC[C@@H](C#N)CC1` [Example 7, cis-4-{2-[(1R)-1-Hydroxyethyl]-1H-imidazo[4,5-d]thieno[3,2-b]pyridin-1-yl}cyclohexanecarbonitrile], the JAK2/JAK1 in the assay with human JAK1 [1] is >10. Also, the IC50 against human JAK1 [2] is ≤ 0.1 µM; on human JAK2 it was ≤ 2 µM.
As for `C[C@@H](O)c1nc2cnc3ccsc3c2n1[C@H]1CC[C@H](CCC#N)CC1` [Example 8, 3-(trans-4-{2-[(1R)-1-Hydroxyethyl]-1H-imidazo[4,5-d]thieno[3,2-b]pyridin-1-yl}cyclohexyl)propane nitrile], the JAK2/JAK1 in the assay on human JAK1 [1] is listed as >10. The IC50 against human JAK1 [2] is ≤ 0.1 µM; on human JAK2, ≤ 1 µM.
Regarding `C[C@@H](O)c1nc2cnc3ccsc3c2n1[C@H]1CC[C@H](CC#N)CC1.Cl` [Example 10, (trans-4-{2-[(1R)-1-Hydroxyethyl]-1H-imidazo[4,5-d]thieno[3,2-b]pyridin-1-yl}cyclohexyl)acetonitrile HCl salt], in the assay on human JAK1 [1], the JAK2/JAK1 is >10. For the same compound, the IC50 against human JAK1 [2] is ≤ 0.1 µM; at human JAK2 it was ≤ 1 µM.
For the compound `C[C@@H](O)c1nc2cnc3ccsc3c2n1[C@H]1CC[C@H](CO)CC1` [Example 11, (1R)-1-{1-[trans-4-(Hydroxymethyl)cyclohexyl]-1H-imidazo[4,5-d]thieno[3,2-b]pyridin-2-yl}ethanol], the JAK2/JAK1 in the assay with human JAK1 [1] is given as >10. For the same compound, at human JAK1 [2], the IC50 is ≤ 0.1 µM. The “JAK2 IC50 (nM)” value on human JAK2 is given as “+++++”.
`C[C@@H](O)c1nc2cnc3ccsc3c2n1[C@H]1CC[C@H](CF)CC1` [Example 12, (1R)-1-{1-[trans-4-(Fluoromethyl)cyclohexyl]-1H-imidazo[4,5-d]thieno[3,2-b]pyridin-2-yl}ethanol]: the JAK2/JAK1 in the assay with human JAK1 [1] is >10. The IC50 against human JAK1 [2] is ≤ 0.1 µM; against human JAK2, ≤ 2 µM.
`C[C@@H](O)c1nc2cnc3ccsc3c2n1C1CCCCC1` [Example 13, (1R)-1-(1-Cyclohexyl-1H-imidazo[4,5-d]thieno[3,2-b]pyridin-2-yl)ethanol]: the JAK2/JAK1 in the assay with human JAK1 [1] is >10. Besides, the IC50 was ≤ 0.1 µM on human JAK1 [2] and > 2 µM against human JAK2.
`C[C@@H](O)c1nc2cnc3ccsc3c2n1[C@H]1CCCN(C(=O)CCC(F)(F)F)C1` [Example 52, (1R)-1-{1-[(3S)-1-(4,4,4-Trifluorobutanoyl)piperidin-3-yl]-1H-imidazo[4,5-d]thieno[3,2-b]pyridin-2-yl}ethanol]: the JAK2/JAK1 in the assay on human JAK1 [1] is >10. In addition, the IC50 at human JAK1 [2] was ≤ 1 µM.
With `Cc1nn2cnc3ccsc3c2c1[C@H]1CC[C@H](CC#N)CC1` [Example 77, [trans-4-(8-Methylpyrazolo[1,5-c]thieno[2,3-e]pyrimidin-9-yl)cyclohexyl]acetonitrile], the IC50 against human JAK1 [2] and at human JAK2 was ≤ 0.1 µM each time.
In the case of “[(1R,2S,4S)-4-(2-Ethyl-1H-imidazo[4,5-d]thieno[3,2-b]pyridin-1-yl)-2-hydroxycyclohexyl]acetonitrile and [(1S,2R,4R)-4-(2-ethyl-1H-imidazo[4,5-d]thieno[3,2-b]pyridin-1-yl)-2-hydroxycyclohexyl]acetonitrile [40 (second peak)]”, at human JAK1 [2], the IC50 is > 2 µM. Besides, the “JAK2 IC50 (nM)” value at human JAK2 was “+++++”.
For the compound “[(1R,2S,4S)-4-(2-Methyl-1H-imidazo[4,5-d]thieno[3,2-b]pyridin-1-yl)-2-hydroxycyclohexyl]acetonitrile and [(1S,2R,4R)-4-(2-methyl-1H-imidazo[4,5-d]thieno[3,2-b]pyridin-1-yl)-2-hydroxycyclohexyl]acetonitrile [41 (second peak)]”, the IC50 against human JAK1 [2] is > 2 µM. In addition, the “JAK2 IC50 (nM)” value at human JAK2 is on record as “+++++”.

Source of the values: patent publication US9777017B2, “Tricyclic fused thiophene derivatives as JAK inhibitors” (Incyte Corporation, priority 2012, dated 2017).
